Reference: patent US20260262643A1, “HERBICIDAL BENZOXAZINES” (FMC CORPORATION, priority 2022, published 2026)

Experiments:
sedge, umbrella = assay: Test B flooded paddy test; assay type: in vivo, Cyperus difformis; conditions: 250 g ai/ha, Flood, 13 days, 0 to 100 scale (0 no effect, 100 complete control)
Method in brief: (§1)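 Percent weed or crop control, judged by eye on a 0–100 scale 13 days post-treatment, reflects compound added to a 3 cm flood maintained over 2-leaf plants in the greenhouse. Missing entries are marked with a dash.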

ragweed [1] = assay: Test A postemergence; assay type: in vivo, Ambrosia artemisiifolia; conditions: postemergence, 10 days
Method in brief: (§2)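 Greenhouse pot test, 10 days. Compound (non-phytotoxic solvent, surfactant) sprayed on soil at seeding or on seedlings at one- to two-leaf stage. Visual injury rated 0–100 against untreated plants.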

blackgrass [2] = assay: Test A preemergence; assay type: in vivo, Alopecurus myosuroides
Method in brief: as §2

foxtail, giant [3] = assay: Test A preemergence; assay type: in vivo, Setaria faberi
Method in brief: as §2

horseweed = assay: Test A postemergence; assay type: in vivo, Erigeron canadensis; conditions: postemergence, 10 days
Method in brief: as §2

oat, wild [4] = assay: Test A postemergence; assay type: in vivo, Avena fatua; conditions: postemergence, 10 days
Method in brief: as §2

corn [5] = assay: Test A postemergence; assay type: in vivo, Zea mays; conditions: postemergence, 10 days
Method in brief: as §2

ragweed [6] = assay: Test A preemergence; assay type: in vivo, Ambrosia artemisiifolia
Method in brief: as §2

wheat [7] = assay: Test A postemergence; assay type: in vivo, Triticum aestivum; conditions: postemergence, 10 days
Method in brief: as §2

soybean [8] = assay: Test A postemergence; assay type: in vivo, Glycine max; conditions: postemergence, 10 days
Method in brief: as §2

pigweed, palmer [9] = assay: Test A preemergence; assay type: in vivo, Amaranthus palmeri
Method in brief: as §2

pigweed, palmer [10] = assay: Test A postemergence; assay type: in vivo, Amaranthus palmeri; conditions: postemergence, 10 days
Method in brief: as §2

foxtail, giant [11] = assay: Test A postemergence; assay type: in vivo, Setaria faberi; conditions: postemergence, 10 days
Method in brief: as §2

oat, wild [12] = assay: Test A preemergence; assay type: in vivo, Avena fatua
Method in brief: as §2

ryegrass, Italian [13] = assay: Test A preemergence; assay type: in vivo, Lolium multiflorum
Method in brief: as §2

goosegrass [14] = assay: Test A preemergence; assay type: in vivo, Eleusine indica
Method in brief: as §2

blackgrass [15] = assay: Test A postemergence; assay type: in vivo, Alopecurus myosuroides; conditions: postemergence, 10 days
Method in brief: as §2

ryegrass, Italian [16] = assay: Test A postemergence; assay type: in vivo, Lolium multiflorum; conditions: postemergence, 10 days
Method in brief: as §2

ducksalad = assay: Test B flooded paddy test; assay type: in vivo, Heteranthera limosa; conditions: 250 g ai/ha, Flood, 13 days, 0 to 100 scale (0 no effect, 100 complete control)
Method in brief: as §1

soybean [17] = assay: Test A preemergence; assay type: in vivo, Glycine max
Method in brief: as §2

rice = assay: Test B flooded paddy test; assay type: in vivo, Oryza sativa; conditions: 250 g ai/ha, Flood, 13 days, 0 to 100 scale (0 no effect, 100 complete control)
Method in brief: as §1

corn [18] = assay: Test A preemergence; assay type: in vivo, Zea mays
Method in brief: as §2

goosegrass [19] = assay: Test A postemergence; assay type: in vivo, Eleusine indica; conditions: postemergence, 10 days
Method in brief: as §2

kochia [20] = assay: Test A postemergence; assay type: in vivo, Bassia scoparia; conditions: postemergence, 10 days
Method in brief: as §2

barnyardgrass = assay: Test B flooded paddy test; assay type: in vivo, Echinochloa crus-galli; conditions: 250 g ai/ha, Flood, 13 days, 0 to 100 scale (0 no effect, 100 complete control)
Method in brief: as §1

kochia [21] = assay: Test A preemergence; assay type: in vivo, Bassia scoparia
Method in brief: as §2

wheat [22] = assay: Test A preemergence; assay type: in vivo, Triticum aestivum
Method in brief: as §2

[23] = 125 g ai/ha, 0 to 100 scale, 0 no effect, 100 complete control
[24] = 500 g ai/ha, visual injury, 0 to 100 scale (0 no effect, 100 complete control)
[25] = 125 g ai/ha, visual injury after 10 days, 0 to 100 scale, 0 is no effect, 100 is complete control
[26] = 500 g ai/ha, 0 to 100 scale (0 no effect, 100 complete control), 10 days

Structure (SMILES): COc1ccc(-n2cnc(C)n2)cc1C(=O)N1C[C@H](C)Oc2c(Cl)cccc21 [Compound 89]
- Plant response rating, Sedge, Umbrella (sedge, umbrella): 100
- Ragweed plant response rating (ragweed [1]; [23]): 60
- Plant response rating, Ragweed (ragweed [1]; [24]): 80
- Plant response rating, Blackgrass (blackgrass [2]; [25]): 70
- Plant response rating, Blackgrass (blackgrass [2]; [26]): 90
- Plant response rating, Foxtail, Giant (foxtail, giant [3]; [25]): 100
- Plant response rating, Foxtail, Giant (foxtail, giant [3]; [26]): 100
- Horseweed plant response rating (horseweed; [23]): 20
- Plant response rating, Horseweed (horseweed; [24]): 40
- Oat, Wild plant response rating (oat, wild [4]; [23]): 80
- Plant response rating, Oat, Wild (oat, wild [4]; [24]): 90
- Corn plant response rating (corn [5]; [23]): 70
- Plant response rating, Corn (corn [5]; [24]): 70
- Plant response rating, Ragweed (ragweed [6]; [25]): 40
- Plant response rating, Ragweed (ragweed [6]; [26]): 90
- Wheat plant response rating (wheat [7]; [23]): 50
- Plant response rating, Wheat (wheat [7]; [24]): 50
- Soybean plant response rating (soybean [8]; [23]): 100
- Plant response rating, Soybean (soybean [8]; [24]): 100
- Plant response rating, Pigweed, Palmer (pigweed, palmer [9]; [25]): 90
- Plant response rating, Pigweed, Palmer (pigweed, palmer [9]; [26]): 100
- Pigweed, Palmer plant response rating (pigweed, palmer [10]; [23]): 70
- Plant response rating, Pigweed, Palmer (pigweed, palmer [10]; [24]): 100
- Foxtail, Giant plant response rating (foxtail, giant [11]; [23]): 90
- Plant response rating, Foxtail, Giant (foxtail, giant [11]; [24]): 100
- Plant response rating, Oat, Wild (oat, wild [12]; [25]): 70
- Plant response rating, Oat, Wild (oat, wild [12]; [26]): 90
- Plant response rating, Ryegrass, Italian (ryegrass, Italian [13]; [25]): 90
- Plant response rating, Ryegrass, Italian (ryegrass, Italian [13]; [26]): 100
- Plant response rating, Goosegrass (goosegrass [14]; [25]): 100
- Plant response rating, Goosegrass (goosegrass [14]; [26]): 100
- Blackgrass plant response rating (blackgrass [15]; [23]): 70
- Plant response rating, Blackgrass (blackgrass [15]; [24]): 80
- Ryegrass, Italian plant response rating (ryegrass, Italian [16]; [23]): 100
- Plant response rating, Ryegrass, Italian (ryegrass, Italian [16]; [24]): 100
- Plant response rating, Ducksalad (ducksalad): 100
- Plant response rating, Soybean (soybean [17]; [25]): 100
- Plant response rating, Soybean (soybean [17]; [26]): 100
- Plant response rating, Rice (rice): 15
- Plant response rating, Corn (corn [18]; [25]): 20
- Plant response rating, Corn (corn [18]; [26]): 60
- Goosegrass plant response rating (goosegrass [19]; [23]): 90
- Plant response rating, Goosegrass (goosegrass [19]; [24]): 100
- Kochia plant response rating (kochia [20]; [23]): 70
- Plant response rating, Kochia (kochia [20]; [24]): 90
- Plant response rating, Barnyardgrass (barnyardgrass): 60
- Plant response rating, Kochia (kochia [21]; [25]): 70
- Plant response rating, Kochia (kochia [21]; [26]): 100
- Plant response rating, Wheat (wheat [22]; [25]): 20
- Plant response rating, Wheat (wheat [22]; [26]): 60
